Test results published in PubChem BioAssay AID2060512 (Molecular Pharmacology Branch, DTP, NCI, 2025).

Tested on: 186277-243-T-J2-PDC complex spheroid viability
Experiment: Anticancer human tumor 186277-243-T-J2-PDC patient-derived colon adenocarcinoma cell line growth inhibition [GQUAD]
Conditions: for IC50: curve of first compound; for viability, T/C: stronger effect = lower value
Text: DNA G-quadruplex Stabilizer Agents in Combinations in Complex Spheroids
A high-throughput screen of multi-cell type tumor spheroids was designed to identify active combinations of DNA G-quadruplex stabilizer agents and targeted small molecules. Complex spheroids include a stromal component modeled by human endothelial cells (HUVEC) and fibroblasts modeled by human mesenchymal stem cells (MSCs). The concentration ranges selected for each drug and investigational agent were based upon clinically achievable concentrations if the clinical Cmax of the agent was known.
Compounds. The drugs and investigational agents: pidnarulex (CX-5461; NSC782164), APTO-253 (NSC789042), BRACO-19 (NSC847499), peposertib (NSC802822), ceralasertib (NSC780249), elimusertib (NSC800525), camonsertib (NSC841442), AZD-1390 (NSC803789), olaparib (NSC753686), talazoparib (NSC767125), ART-558 (NSC835418), sotorasib (NSC818433), MRTX-1133 (NSC836407), SN-38 (NSC673596), topotecan (NSC609699), etoposide (NSC141540), doxorubicin (NSC123127), gemcitabine (NSC613327), 5-fluorouracil (NSC19893), paclitaxel (NSC125973), vemurafenib (NSC761431), panobinostat (NSC761190), R-306465 (JNJ-16241199; NSC773264), adavosertib (NSC754352), TP-3654 (NSC805149), carboplatin (NSC241240), KSQ-4279 (NSC840948), and staurosporine (NSC755774) were obtained from the National Cancer Institute (NCI) Developmental Therapeutics Program Chemical Repository (34). The FDA-approved anticancer drug set is available from the NCI Developmental Therapeutics Program. […] The stock solutions were prepared in dimethyl sulfoxide (DMSO, Sigma-Aldrich, St. Louis, MO, cat. D2650) at 800-fold the tested concentration and stored at -70 degrees C prior to their use. All drugs and investigational agents were tested over a range starting from a high concentration at or near the clinical Cmax and decreasing in half-log increments. If the clinical Cmax for an agent had not been determined, the highest concentration tested was 10 microM.
2.3 Cell Culture. All cells were maintained in an incubator at 37 degrees C and 5% CO2 with 95% humidity. The PDC lines were cultured according to standard operating procedures established by the NCI PDMR. All PDCs were thawed and cultured in Matrigel-coated flasks prepared with a working solution of 1X Ham's F-12 nutrient mix, without supplementation (Invitrogen, cat. 11765054), 100 U/mL penicillin-streptomycin (Invitrogen, cat. 15140122), and 2.5% Matrigel (Corning Inc., cat. 354248) for the first three passages. The 857933-349-R-J2-PDC line was cultured in 6C/Colon 1B media, which includes advanced DMEM/F-12 (Thermo Fisher Scientific, cat. 12634028), 10 mM HEPES (Thermo Fisher Scientific, cat. 15630080), 1X GlutaMAX supplement (Thermo Fisher Scientific, cat. 35050061), 0.1 mg/mL primocin (InvivoGen, cat. ant-pm-2), 10% defined fetal bovine serum, heat inactivated (HyClone Laboratories Inc., cat. SH30070.03HI), 50% L-WRN conditioned media (ATCC, cat. CRL-3276), 1.25 mM N-Acetyl-L-cysteine (Sigma-Aldrich, cat. A9165), 10 mM nicotinamide (Sigma-Aldrich, cat. N0636), 1X B-27 supplement (Thermo Fisher Scientific, cat. 17504044), 1X N-2 supplement (Thermo Fisher Scientific, cat. 17502048), 10 microM Y-27632 dihydrochloride (Tocris Bioscience, cat. 1254), and 50 ng/mL human EGF recombinant protein (Thermo Fisher Scientific, cat. PHG0311). The 485176-168-R4-J1-PDC line was cultured in Panc media, which includes all 6C/Colon 1B media components plus 100 ng/mL human FGF-10 (Thermo Fisher Scientific, cat. 100-26), 500 nM SB-431542 (Selleckchem, cat. S1067), and gastrin (Tocris, cat. 3006).
[…]

[1] = second compound 0.0316 µM, first compound 0.0316 µM
[2] = second compound 0.0316 µM, first compound 0.1 µM
[3] = second compound 0.0316 µM, first compound 0.316 µM
[4] = second compound 0.0316 µM, first compound 1 µM
[5] = second compound 0.0316 µM, first compound 3.16 µM
[6] = second compound 0.0316 µM, first compound 10 µM
[7] = second compound 0.1 µM, first compound 0.0316 µM
[8] = second compound 0.1 µM, first compound 0.1 µM
[9] = second compound 0.1 µM, first compound 0.316 µM
[10] = second compound 0.1 µM, first compound 1 µM
[11] = second compound 0.1 µM, first compound 3.16 µM
[12] = second compound 0.1 µM, first compound 10 µM
[13] = second compound 0.316 µM, first compound 0.0316 µM
[14] = second compound 0.316 µM, first compound 0.1 µM
[15] = second compound 0.316 µM, first compound 0.316 µM
[16] = second compound 0.316 µM, first compound 1 µM
[17] = second compound 0.316 µM, first compound 3.16 µM
[18] = second compound 0.316 µM, first compound 10 µM
[19] = second compound 1 µM, first compound 0.0316 µM
[20] = second compound 1 µM, first compound 0.1 µM
[21] = second compound 1 µM, first compound 0.316 µM
[22] = second compound 1 µM, first compound 1 µM
[23] = second compound 1 µM, first compound 3.16 µM
[24] = second compound 1 µM, first compound 10 µM
[25] = second compound 3.16 µM, first compound 0.0316 µM
[26] = second compound 3.16 µM, first compound 0.1 µM
[27] = second compound 3.16 µM, first compound 0.316 µM
[28] = second compound 3.16 µM, first compound 1 µM
[29] = second compound 3.16 µM, first compound 3.16 µM
[30] = second compound 3.16 µM, first compound 10 µM
[31] = second compound 10 µM, first compound 0.0316 µM
[32] = second compound 10 µM, first compound 0.1 µM
[33] = second compound 10 µM, first compound 0.316 µM
[34] = second compound 10 µM, first compound 1 µM
[35] = second compound 10 µM, first compound 3.16 µM
[36] = second compound 10 µM, first compound 10 µM
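Also: spheroids exposed to drugs for 7 days.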
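For viability, T/C in this document: 100% = DMSO vehicle control viability.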

CC(C)n1c(=O)n(C)c2cnc3cc(F)c(-c4ccc(OCCCN5CCCCC5)nc4)cc3c21 + Cc1[nH]c2ccc(F)cc2c1-c1nc2c3cccnc3c3ncccc3c2[nH]1
IC50 (second compound 0.0316 µM): > 10 µM
IC50 (second compound 0.1 µM): > 10 µM
IC50 (second compound 0.316 µM): > 10 µM
IC50 (second compound 1 µM): > 10 µM
IC50 (second compound 3.16 µM): > 10 µM
IC50 (second compound 10 µM): > 10 µM
viability, T/C [1]: 102%
viability, T/C [2]: 94.9%
viability, T/C [3]: 106%
viability, T/C [4]: 95.5%
viability, T/C [5]: 101%
viability, T/C [6]: 83.6%
viability, T/C [7]: 108%
viability, T/C [8]: 91.4%
viability, T/C [9]: 99.6%
viability, T/C [10]: 104%
viability, T/C [11]: 93.6%
viability, T/C [12]: 89.2%
viability, T/C [13]: 83.3%
viability, T/C [14]: 105%
viability, T/C [15]: 101%
viability, T/C [16]: 89.5%
viability, T/C [17]: 113%
viability, T/C [18]: 98.5%
viability, T/C [19]: 87.9%
viability, T/C [20]: 89.8%
viability, T/C [21]: 104%
viability, T/C [22]: 102%
viability, T/C [23]: 100%
viability, T/C [24]: 97.7%
viability, T/C [25]: 91.7%
viability, T/C [26]: 90.2%
viability, T/C [27]: 105%
viability, T/C [28]: 103%
viability, T/C [29]: 103%
viability, T/C [30]: 96.3%
viability, T/C [31]: 96%
viability, T/C [32]: 94.7%
viability, T/C [33]: 104%
viability, T/C [34]: 104%
viability, T/C [35]: 89%
viability, T/C [36]: 93.3%

COc1ncnc(C2CC2)c1-c1ncc2cnn(Cc3ccc(-c4nc(C(F)(F)F)cn4C(C)C)cc3)c2n1 + CN(C)c1ccc(Nc2c3ccc(NC(=O)CCN4CCCC4)cc3nc3cc(NC(=O)CCN4CCCC4)ccc23)cc1
IC50 (second compound 0.0316 µM): > 10 µM
IC50 (second compound 0.1 µM): > 10 µM
IC50 (second compound 0.316 µM): > 10 µM
IC50 (second compound 1 µM): > 10 µM
IC50 (second compound 3.16 µM): > 10 µM
IC50 (second compound 10 µM): > 10 µM
viability, T/C [1]: 106%
viability, T/C [2]: 102%
viability, T/C [3]: 101%
viability, T/C [4]: 101%
viability, T/C [5]: 106%
viability, T/C [6]: 98.1%
viability, T/C [7]: 102%
viability, T/C [8]: 93.2%
viability, T/C [9]: 105%
viability, T/C [10]: 94.8%
viability, T/C [11]: 99%
viability, T/C [12]: 98.2%
viability, T/C [13]: 92.8%
viability, T/C [14]: 110%
viability, T/C [15]: 105%
viability, T/C [16]: 98.7%
viability, T/C [17]: 103%
viability, T/C [18]: 85.6%
viability, T/C [19]: 100%
viability, T/C [20]: 114%
viability, T/C [21]: 101%
viability, T/C [22]: 107%
viability, T/C [23]: 112%
viability, T/C [24]: 84.3%
viability, T/C [25]: 99.1%
viability, T/C [26]: 98%
viability, T/C [27]: 113%
viability, T/C [28]: 108%
viability, T/C [29]: 118%
viability, T/C [30]: 95%
viability, T/C [31]: 111%
viability, T/C [32]: 116%
viability, T/C [33]: 106%
viability, T/C [34]: 99.2%
viability, T/C [35]: 105%
viability, T/C [36]: 53.8%

COc1cccc2c1C(=O)c1c(O)c3c(c(O)c1C2=O)CC(O)(C(=O)CO)CC3OC1CC(N)C(O)C(C)O1 (stereo unspecified) + CN(C)c1ccc(Nc2c3ccc(NC(=O)CCN4CCCC4)cc3nc3cc(NC(=O)CCN4CCCC4)ccc23)cc1
IC50 (second compound 0.0316 µM): 0.39 µM
IC50 (second compound 0.1 µM): 0.369 µM
IC50 (second compound 0.316 µM): 0.311 µM
IC50 (second compound 1 µM): 0.28 µM
IC50 (second compound 3.16 µM): 0.38 µM
IC50 (second compound 10 µM): 0.438 µM
viability, T/C [1]: 109%
viability, T/C [2]: 94.3%
viability, T/C [3]: 59.1%
viability, T/C [4]: 14.6%
viability, T/C [5]: 0.22%
viability, T/C [6]: 0.33%
viability, T/C [7]: 96.2%
viability, T/C [8]: 93.8%
viability, T/C [9]: 54.8%
viability, T/C [10]: 13%
viability, T/C [11]: 0.14%
viability, T/C [12]: 0.11%
viability, T/C [13]: 107%
viability, T/C [14]: 78.9%
viability, T/C [15]: 53.6%
viability, T/C [16]: 19.4%
viability, T/C [17]: 0.17%
viability, T/C [18]: 0.49%
viability, T/C [19]: 105%
viability, T/C [20]: 88.9%
viability, T/C [21]: 43.2%
viability, T/C [22]: 16.6%
viability, T/C [23]: 0.37%
viability, T/C [24]: 0.6%
viability, T/C [25]: 109%
viability, T/C [26]: 91%
viability, T/C [27]: 56.4%
viability, T/C [28]: 19.8%
viability, T/C [29]: 0.3%
viability, T/C [30]: 0.16%
viability, T/C [31]: 97.7%
viability, T/C [32]: 81.6%
viability, T/C [33]: 63.5%
viability, T/C [34]: 21.9%
viability, T/C [35]: 1.2%
viability, T/C [36]: 0.25%
